Laboratory results: patent US5358712A, “Radiopharmaceutical agents for the detection of Alzheimer's disease” (Regents of the University of Minnesota, priority 1993, dated 1994)
Blank lines part the entries; values can stand above or below the molecule they belong to.

Assays:
[1] = tested on: rat brain; experiment: Ex vivo autoradiographic studies, regional distribution in the rodent brain; design: species or system rat (male Wistar); conditions: 3 hours
Protocol: Four male Wistar rats weighing 300-330 g. were anesthetized with diethyl ether. While under anesthesia two animals each received an intravenous dose of 300 μCi of (-)-4-[^125 I]HIPP in […] of 50% aqueous ethanol. The second pair of animals received an iv dose of (+)-4-[^125I]HIPP (170 μCi) in the same solvent. The animals were sacrificed by decapitation three hours following radiotracer administration. The brains were harvested, embedded in Tissue Tek OCT embedding medium and frozen to -38° C. Twenty-micron thick brain sections were obtained at -15° C. using a Reicheft HistoSTAT cryostat microtome. The sections were dried and opposed to Kodak NMC film for autoradiography accompanied by external standards (^125 I-labelled microscales from Amersham). Images were subsequently digitized based on the linear scale obtained from these standards.

[2] = tested on: vesamicol receptor; experiment: Blocking experiments: inhibition of radiotracer accumulation in the rat by coadministered compound; assay type: in vivo, rat (male Wistar); conditions: rat, 60 min; for reduction of accumulation of radioactivity in the brain / reduction of accumulation of radioactivity in the heart: coadministered blocker; for Brain: Blood Ratio / Heart: Blood Ratio / radioactivity in blood / radioactivity in brain / radioactivity in heart / radioactivity in kidney / radioactivity in liver / radioactivity in lung / radioactivity in muscle / radioactivity in spleen: iv
Procedure, shortened: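 Male Wistar rats (n=3/group) got iv radiotracer, alone or coadministered with blocker (e.g. (+)/(−)-HBrPP·HCl 1.3 μmol/kg, vesamicol·HCl 1.1 μmol/kg, or 0.31–0.53 mg/kg in other series). Blood and tissues taken 60 min post-injection to assess radiotracer accumulation.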

[3] = Tissue distribution (biodistribution) of radioiodinated compound in the rat; conditions: for injected dose found in the brain: 5 minutes post injection; for concentration of radioactivity in the brain over time: duration of the study (3 hours); for Brain: Blood Ratio / Heart: Blood Ratio / radioactivity in blood / radioactivity in brain / radioactivity in heart / radioactivity in kidney / radioactivity in liver / radioactivity in lung / radioactivity in muscle / radioactivity in spleen: iv; for level of radioactivity in the blood: throughout the study; for brain retention (in words): rodent (and monkey)
[4] = tested on: monkey brain; experiment: Brain imaging study (SPECT); assay type: in vivo; conditions: cynomolgus monkey
Protocol: These studies were conducted with a Picker 3-head PRISM camera equipped with a high-resolution fan beam collimator. A 5-Kg male cynomolgus monkey, anesthetized with halothane, received an intravenous dose of 12 mCi of (-)-4-[^123 I]HIPP ((-)-[^123 I]5) in 1 ml of 50% ethanol-isotonicsaline. Data acquisition which commenced simultaneously, in the "step and shoot" mode, was divided into one 5minute segment, six 10-minute segments and a final 20-minute segment. At 18 hours post-injection, data was acquired under similar conditions for both the head and the heart, over a 20 minute period. For cardiac imaging, the camera was equipped with a medium-energy-parallel-hole collimator. The data was subsequently processed to obtain both a time-activity curve and images in the transaxial and sagittal planes. To obtain an estimate of the fractional accumulation of (-)-4-^123 I]HIPP in the monkey brain, a phantom filled consecutively with varying concentrations of aqueous Na^125 I was counted with the gamma camera to generate a standard curve.

[5] = tested on: vesicular acetylcholine storage; conditions: Kaufman et al 1988; Rogers et al 1989; cited from earlier work
[6] = tested on: vesamicol receptor; conditions: cited from earlier work
[7] = + (dl)-vesamicol HCl 0.3 (Table 3) or 0.31 mg/kg

SMILES: OC(Cc1ccc([125I])cc1)CN1CCC(c2ccccc2)CC1 (single isomer, unassigned; (+)) [(+)-4-[^125 l]HIPP] [2-Hydroxy-3-(4-iodophenyl)-1-(4-phenylpiperidyl)propane]
radioactivity in cerebellar molecular layer relative to granular layer [1]: slightly higher concentration
radioactivity in frontal cortex and caudate-putamen [1]: Moderate levels
radioactivity in pineal gland and nuclei of fifth and seventh cranial nerves [1]: highest levels
radioactivity in the white matter [1]: relatively low
reduction of accumulation of radioactivity in the brain ([2]; listed as (+)-[^125 I]5): 53%-58%
reduction of accumulation of radioactivity in the heart ([2]; listed as (+)-[^125 I]5): 74% -76%
Brain: Blood Ratio ([2]; + (+)-7 HCl 0.53 mg/kg): 3.9
Heart: Blood Ratio ([2]; + (+)-7 HCl 0.53 mg/kg): 1.8
radioactivity in blood ([2]; + (+)-7 HCl 0.53 mg/kg): 0.06 % dose/g of tissue
radioactivity in brain ([2]; + (+)-7 HCl 0.53 mg/kg): 0.32 % dose/g of tissue
radioactivity in heart ([2]; + (+)-7 HCl 0.53 mg/kg): 0.15 % dose/g of tissue
radioactivity in kidney ([2]; + (+)-7 HCl 0.53 mg/kg): 0.47 % dose/g of tissue
radioactivity in liver ([2]; + (+)-7 HCl 0.53 mg/kg): 1.13 % dose/g of tissue
radioactivity in lung ([2]; + (+)-7 HCl 0.53 mg/kg): 1.29 % dose/g of tissue
radioactivity in muscle ([2]; + (+)-7 HCl 0.53 mg/kg): 0.08 % dose/g of tissue
radioactivity in spleen ([2]; + (+)-7 HCl 0.53 mg/kg): 0.71 % dose/g of tissue
radioactivity in spleen ([2]; + (-)-7 HCl 0.53 mg/kg): 0.57 % dose/g of tissue
Brain: Blood Ratio ([2]; + (-)-7 HCl 0.53 mg/kg): 4.5
Heart: Blood Ratio ([2]; + (-)-7 HCl 0.53 mg/kg): 2.0
radioactivity in blood ([2]; + (-)-7 HCl 0.53 mg/kg): 0.05 % dose/g of tissue
radioactivity in brain ([2]; + (-)-7 HCl 0.53 mg/kg): 0.32 % dose/g of tissue
radioactivity in heart ([2]; + (-)-7 HCl 0.53 mg/kg): 0.16 % dose/g of tissue
radioactivity in kidney ([2]; + (-)-7 HCl 0.53 mg/kg): 0.54 % dose/g of tissue
radioactivity in liver ([2]; + (-)-7 HCl 0.53 mg/kg): 0.90 % dose/g of tissue
radioactivity in lung ([2]; + (-)-7 HCl 0.53 mg/kg): 1.51 % dose/g of tissue
radioactivity in muscle ([2]; + (-)-7 HCl 0.53 mg/kg): 0.09 % dose/g of tissue
Brain: Blood Ratio [2, 7]: 9.7
Heart: Blood Ratio [2, 7]: 3.8
radioactivity in blood [2, 7]: 0.04 % dose/g of tissue
radioactivity in brain [2, 7]: 0.36 % dose/g of tissue
radioactivity in heart [2, 7]: 0.15 % dose/g of tissue
radioactivity in kidney [2, 7]: 0.46 % dose/g of tissue
radioactivity in liver [2, 7]: 2.23 % dose/g of tissue
radioactivity in lung [2, 7]: 1.11 % dose/g of tissue
radioactivity in muscle [2, 7]: 0.08 % dose/g of tissue
radioactivity in spleen [2, 7]: 0.68 % dose/g of tissue
Brain: Blood Ratio ([2]; radiotracer only (control)): 28.7
Heart: Blood Ratio ([2]; radiotracer only (control)): 39.8
radioactivity in blood ([2]; radiotracer only (control)): 0.02 % dose/g of tissue
radioactivity in brain ([2]; radiotracer only (control)): 0.76 % dose/g of tissue
radioactivity in heart ([2]; radiotracer only (control)): 0.60 % dose/g of tissue
radioactivity in kidney ([2]; radiotracer only (control)): 1.63 % dose/g of tissue
radioactivity in liver ([2]; radiotracer only (control)): 1.38 % dose/g of tissue
radioactivity in lung ([2]; radiotracer only (control)): 3.46 % dose/g of tissue
radioactivity in muscle ([2]; radiotracer only (control)): 0.13 % dose/g of tissue
radioactivity in spleen ([2]; radiotracer only (control)): 1.10 % dose/g of tissue
tissue distribution profile compared with (-)-[^125 I]5 ([3]; rat): similar
injected dose found in the brain ([3]; rat, listed as (+)-[^125 I]5): 2.27 % of the injected dose
injected dose found in the heart ([3]; rat, 5 minutes post-injection, listed as (+)-[^125 I]5): 1.23 % of the injected dose
decrease of radioactivity in the heart ([3]; rat, between 5 and 30 minutes): 32%
concentration of radioactivity in the brain over time ([3]; rat, listed as (+)-[^125 I]5): remained essentially constant
Brain: Blood Ratio ([3]; rat, 5 min): 15.2
Heart: Blood Ratio ([3]; rat, 5 min): 22.7
Brain: Blood Ratio ([3]; rat, 30 min): 32.4
Heart: Blood Ratio ([3]; rat, 30 min): 32.7
Brain: Blood Ratio ([3]; rat, 60 min): 44.3
Heart: Blood Ratio ([3]; rat, 60 min): 40.2
Brain: Blood Ratio ([3]; rat, 180 min): 44.8
Heart: Blood Ratio ([3]; rat, 180 min): 28.2
level of radioactivity in the blood ([3]; rat): low
brain retention (in words) [3]: comparable retention

brain activity relative to surrounding tissues ([4]; 11/2 and 18 hours post-injection): high levels of activity
t-1/2 in the monkey brain ([4]; iv): 9 h
accumulation within the brain ([4]; iv, estimated): ~3 % of the injected dose
SMILES: OC(Cc1ccc([123I])cc1)CN1CCC(c2ccccc2)CC1 (single isomer, unassigned; (-)) [(-)-4-[^123 I]HIPP, 2-Hydroxy-3-(4-iodophenyl)-1-(4-phenylpiperidyl)propane]

SMILES: OC(Cc1ccc([125I])cc1)CN1CCC(c2ccccc2)CC1 (single isomer, unassigned; (-)) [(-)-4-[^125 l]HIPP] [2-Hydroxy-3-(4-iodophenyl)-1-(4-phenylpiperidyl)propane]
radioactivity in cerebellar molecular layer relative to granular layer [1]: slightly higher concentration
radioactivity in frontal cortex and caudate-putamen [1]: Moderate levels
radioactivity in pineal gland and nuclei of fifth and seventh cranial nerves [1]: highest levels
radioactivity in the white matter [1]: relatively low
reduction of accumulation of radioactivity in the brain ([2]; listed as (-)-[^125 I]5): 70%
reduction of accumulation of radioactivity in the heart ([2]; listed as (-)-[^125 I]5): 84%
Brain: Blood Ratio ([2]; + (+)-7 HCl 0.53 mg/kg): 5.6
Heart: Blood Ratio ([2]; + (+)-7 HCl 0.53 mg/kg): 2.5
radioactivity in liver ([2]; + (+)-7 HCl 0.53 mg/kg): 2.87 % dose/g of tissue
Brain: Blood Ratio ([2]; + (-)-7 HCl 0.53 mg/kg): 7.1
Heart: Blood Ratio ([2]; + (-)-7 HCl 0.53 mg/kg): 3.0
radioactivity in liver ([2]; + (-)-7 HCl 0.53 mg/kg): 1.90 % dose/g of tissue
Brain: Blood Ratio [2, 7]: 12.7
Heart: Blood Ratio [2, 7]: 4.9
Brain: Blood Ratio ([2]; radiotracer only (control)): 42.7
Heart: Blood Ratio ([2]; radiotracer only (control)): 36.5
injected dose found in the brain ([3]; rat, listed as (-)-[^125 I]5): 1.94 % of the injected dose
injected dose found in the heart ([3]; rat, 5 minutes post-injection, listed as (-)-[^125 I]5): 1.2 % of the injected dose
reduction of injected dose in the heart ([3]; rat, 5 minutes to 3 hours): 50%
injected dose found in the heart ([3]; rat, after 3 hours): 0.59 % of the injected dose
concentration of radioactivity in the brain over time ([3]; rat, listed as (-)-[^125 I]5): remained essentially stable
Brain: Blood Ratio ([3]; rat, 5 min): 12.3
Heart: Blood Ratio ([3]; rat, 5 min): 16.4
radioactivity in blood ([3]; rat, 5 min): 0.09 % dose/g
radioactivity in brain ([3]; rat, 5 min): 1.03 % dose/g
radioactivity in heart ([3]; rat, 5 min): 1.32 % dose/g
radioactivity in kidney ([3]; rat, 5 min): 2.89 % dose/g
radioactivity in liver ([3]; rat, 5 min): 1.33 % dose/g
radioactivity in lung ([3]; rat, 5 min): 8.62 % dose/g
radioactivity in muscle ([3]; rat, 5 min): 0.35 % dose/g
radioactivity in spleen ([3]; rat, 5 min): 0.87 % dose/g
Brain: Blood Ratio ([3]; rat, 30 min): 31.3
Heart: Blood Ratio ([3]; rat, 30 min): 26.8
radioactivity in blood ([3]; rat, 30 min): 0.03 % dose/g
radioactivity in brain ([3]; rat, 30 min): 0.94 % dose/g
radioactivity in heart ([3]; rat, 30 min): 0.74 % dose/g
radioactivity in kidney ([3]; rat, 30 min): 2.23 % dose/g
radioactivity in liver ([3]; rat, 30 min): 2.28 % dose/g
radioactivity in lung ([3]; rat, 30 min): 4.80 % dose/g
radioactivity in muscle ([3]; rat, 30 min): 0.19 % dose/g
radioactivity in spleen ([3]; rat, 30 min): 1.09 % dose/g
Brain: Blood Ratio ([3]; rat, 60 min): 55.5
Heart: Blood Ratio ([3]; rat, 60 min): 40.3
radioactivity in blood ([3]; rat, 60 min): 0.02 % dose/g
radioactivity in brain ([3]; rat, 60 min): 0.98 % dose/g
radioactivity in heart ([3]; rat, 60 min): 0.72 % dose/g
radioactivity in kidney ([3]; rat, 60 min): 1.85 % dose/g
radioactivity in liver ([3]; rat, 60 min): 2.0 % dose/g
radioactivity in lung ([3]; rat, 60 min): 3.33 % dose/g
radioactivity in muscle ([3]; rat, 60 min): 0.18 % dose/g
radioactivity in spleen ([3]; rat, 60 min): 1.40 % dose/g
Brain: Blood Ratio ([3]; rat, 180 min): 69.7
Heart: Blood Ratio ([3]; rat, 180 min): 42.5
radioactivity in blood ([3]; rat, 180 min): 0.01 % dose/g
radioactivity in brain ([3]; rat, 180 min): 0.94 % dose/g
radioactivity in heart ([3]; rat, 180 min): 0.57 % dose/g
radioactivity in kidney ([3]; rat, 180 min): 1.63 % dose/g
radioactivity in liver ([3]; rat, 180 min): 2.43 % dose/g
radioactivity in lung ([3]; rat, 180 min): 2.52 % dose/g
radioactivity in muscle ([3]; rat, 180 min): 0.16 % dose/g
radioactivity in spleen ([3]; rat, 180 min): 1.21 % dose/g
level of radioactivity in the blood ([3]; rat): low
brain retention (in words) [3]: comparable retention

SMILES: OC1Cc2ccccc2CC1N1CCC(c2ccccc2)CC1 (stereo not drawn) [Compound 1]
vesamicol-like inhibitory activity (in words) [5]: potent
eudesmic ratio [6]: not unity
